Source: US20260193267A1, “Solid Forms of Naphthyridine Compounds” (AMGEN INC., priority 2023, published 2026)
Entries after “also recorded” stand apart in the source; their conditions may differ.

How the values were obtained:
physchem = assay: physchem
From the text: Suitable nonlimiting examples of counterions for forming salts with Compound A include benzene sulfonic acid (BSA), toluene sulfonic acid (TSA), sulfuric acid, hydrochloric acid, malonic acid, naphthalene-2-sulfonic acid, methane sulfonic acid, oxalic acid, tartaric acid, ethane sulfonic acid, cyclamic acid, maleic acid, or phosphoric acid.

[1] = Solubility of Form 1 in aqueous media; format: physicochemical; details: aqueous buffer; aqueous media at pHs of 1-8
[2] = Physical and chemical stability in excipient blends (ssNMR); format: physicochemical; details: 40° C./75% RH, 25° C./60% RH open, 40° C./75% RH closed
[3] = Stability under compression forces representative of tableting; format: physicochemical; details: compression up to 200 MPa
[4] = Dynamic vapor sorption (DVS) moisture sorption; format: physicochemical
Description: DVS—Method 1: DVS was measured via a SMS (Surface Measurement Systems) DVS Resolution. The relative humidity at 25° C. was calibrated against the deliquescence point of LiCl, Mg(NO3)2 and KCl.
DVS—Method 2: Moisture sorption data was collected using a DVS vapor sorption analyzer. A sample size of approximately 10-20 mg was used in a glass or metal pan. Hygroscopicity was evaluated from 40 to 90 to 0 to 90 to 40% RH in increments of 5% RH or from 40 to 0 to 95 to 0 to 95% RH in increments of 10% RH. Data for adsorption and desorption cycles were collected. Equilibrium criteria were set at 0.002% weight change in 1 minute with a maximum equilibration time of 180 minutes.

Row | SMILES | pKa (physchem) | solubility [1] | physical and chemical stability by ssNMR [2] | degradation related to the Maillard reaction ([2]; after 2 weeks) | form change by DSC and XRPD after compression [3] | hygroscopicity by DVS ([4]; 0% to 95% relative humidity at 25° C.) | change in form on DVS ([4]; 0-95% relative humidity at 25° C.)
1 | Nc1nc2cnc(C(=O)N3CCOC[C@@H]3c3ccc(C(F)(F)F)cc3)cc2c2c1COC2 [Compound A] | 4.27 |  |  |  |  |  | 
2 | Nc1nc2cnc(C(=O)N3CCOC[C@@H]3c3ccc(C(F)(F)F)cc3)cc2c2c1COC2 [Form 1] |  | > 10 µg/mL | physically and chemically stable | no evidence of degradation related to the Maillard reaction | no form change | non-hygroscopic; also recorded: non-hygroscopicity | no observable change in form
